We go through three compounds from PMC6656724 (Communications Biology, 2019).

Several values for one entry are separate records, joined by “and”; a condition that tells them apart may be missing. Equal values may be shown once.

In data set [1] the test system is KMO activity in the striatum. As to the kind of experiment: De novo 3-HK synthesis after intrastriatal [5-3H]-kynurenine. It counts as in vivo, Sprague–Dawley rats. The protocol:
The prodrug (5 mg/kg) was administered intravenously to rats, immediately followed by an intrastriatal infusion of [^3H]-KYN. Tritiated KP metabolites were analysed after 1 h. A significant ~70% reduction (P < 0.01) in [^3H]-3-HK was observed (Fig. 3f) in parallel with minor increases in [^3H]-QUIN and […] (data not shown)—mirroring the results using a focal intracerebral injection of a KMO inhibitor[17].
The radioactive tracer method previously described by Guidetti et al. (1995)[31] was used to study acute KP metabolism in the brain in vivo. To this end, adult male Sprague–Dawley rats (weighing 270–300 g) were anesthetized with isoflurane using a vaporiser (induction dose 5%, maintenance dose 2%, v/v, in 100% oxygen) and placed in a stereotaxic frame. […] After thawing, tritiated KP metabolites were detected and analysed as described previously. The production of newly formed [^3H]-KYNA, [^3H]-3-HK and [^3H]-QUIN was expressed as a percentage of the total radioactivity recovered per striatum. […] The mobile phase was flown at 1.2 ml/min (Waters 515 HPLC Pump) through YMC-Pack Pro C18 (250 × 4.6 mm) column and detected with UV (Applied Biosystems 785A Absorbance Detector) at 254 nm then mixed with LabLogic FlowLogic U scintillation fluid flowing at 2.7 mL/min and radiation was detected (Berthold Technologies FlowStar LB514).

Data set [2] is described as follows: Stability in rat hepatocytes.
Experimental: Rat hepatocyte compound stability assays were performed using cryopreserved vials of rat cryopreserved hepatocytes (Life Technologies), which were thawed according to manufacturer’s instructions and resuspended in Williams Medium E (WME) containing cell maintenance supplement pack (CM4000, Life
Technologies). Hepatocytes were incubated in suspension (0.5 million cells/mL) in 48 well non-collagen coated cell culture plates for 10 minutes at 37 °C, 5%
CO2. Upon addition of an equal volume of supplemented WME containing 1 mM test compound, an aliquot of incubation solution was removed to acetonitrile containing internal standard (final concentration 0.5 mM test compound and a cell density of 0.25 million cells/mL). Similarly, aliquots were removed at 3,6,9,15,30,45,60,90 and
100 mL of 80:20 water:acetonitrile was added to all samples and the analysis plate was centrifuged for 10 minutes at room temperature prior to injection and analysis of samples by UPLC-MS/MS using a Xevo TQs micro (Waters corporation, USA). XLfit (IDBS, UK) was used to calculate the exponential decay and consequently the rate constant (k) from the ratio of peak area of test compound to internal standard at each timepoint. The rate of intrinsic clearance (CLi) was then
1.10 Rat hepatocyte stability […]
internal standard at each timepoint. The calculated hepatocyte intrinsic clearance […]
The target in data set [3] is T1, PfKMO (Pseudomonas fluorescens, UniProt Q84HF5, C252S/C461S).
T1 construct: made in house; host or cells: E. coli BL21 (DE3)
Nature of the data set: biochemical. As to the method:
saturating concentrations of the L-KYN and NADPH substrates. Data are plotted […]
consumption of NADPH at 340 nm upon addition of enzyme via a Cary 50 UV-Vis spectrophotometer (Agilent Technologies). Rates were determined from linear regression fits to the initial linear portion of the curves. All measurements were performed in triplicate. The IC50 values for inhibitors were obtained by plotting the percentage inhibition versus the inhibitor concentration and fitting to the Morrison equation16 (equation 1) using Origin 9.0 Software (OriginLab, Northampton, MA).
E + I + K!"" − E + I + K!"" ! − 4[E][I] where v0 is the enzyme activity without inhibitor, vi is the enzyme activity with ligand concentration [I], [E] is the enzyme concentration, [I] is the inhibitor concentration, K!"" is the apparent inhibition constant and IC = K!"" + [!] . If K!"" ≫ [!], IC ≈ […]
where Ki is the inhibition constant, [S] is the substrate concentration used in the assay and Km is the Michaelis-Menten constant17. […]
between Ki and Ki apparent values, as the conditions for measuring IC50 are different, Ki values can be used to compare with other reported KMO inhibitors.
Steady-state kinetic parameters for PfKMO were calculated by measuring initial rates […]
the observed rate of turnover (v) versus the varied substrate concentration were fitted to equation 2 using Origin 9.0 Software (OriginLab, Northampton, MA).
A B + K!! B + K!! A + K!!K!! where v is the initial rate of activity, Vmax is the maximum velocitie of the reaction, [A] and [B] are the substrate concentration, K!! and K!! are the Michaelis-Menten constant for different substrate and K!! is the inhibition (binding) constant of substrate A to the free enzyme while forming transitory complexes.18
Product inhibition studies were carried out by measuring reaction rates at varying […]
one substrate and varying concentrations of the other substrate. Inhibition studies with target compounds were carried out by measuring reaction rates at varying inhibitor concentrations at saturating concentrations of one substrate and varying concentrations of the other substrate. […]
were used to distinguish between different types of inhibition. The data were fitted to a straight line defined by the Lineweaver-Burke equation (equation 4), with the y intercept providing 1/Vmax and the x intercept giving -1/Km. […]

Data set [4] deals with T1, PfKMO. Nature of the data set: Stopped-flow reduction of flavin cofactor by NADPH. In kind it is biochemical. Particulars: for Reduction rate of flavin cofactor: PfKMO with saturating ligand, 2 mM NADPH, 25 °C, anaerobic. The protocol:
The reduction rate of the flavin cofactor by NADPH was measured using a stopped-flow spectrophotometer (Applied Photophysics Ltd), which was housed in an anaerobic glovebox (Belle Technology). […] The reduction of the flavin was monitored by the decrease in the absorbance of the flavin at 450 nm and transients were fitted to either double or triple exponentials.
Supplementary Figure 13. Reduction of flavin cofactor by NADPH in the presence and absence of ligands. Anaerobic mixtures of 10 µM PfKMO with or without ligand were mixed against anaerobic 2 mM NADPH on a stopped-flow spectrophotometer at 25℃. a, 10 µM PfKMO mixed with 2 mM NADPH; b, 10 µM

Data set [5] deals with T1, PfKMO. Nature of the data set: Hydrogen peroxide production, o-dianisidine / horseradish peroxidase assay. In kind it is biochemical. Particulars: presence and absence of L-Kyn. The protocol: H2O2 production rates from PfKMO inhibitor complexes were performed using a horseradish peroxidase (HRP) assay. NADPH consumption rate was measured in the presence and absence of an excess of KMO inhibitors (400 μM). For determination of H2O2 production rates, PfKMO (0.1 μM) was incubated with 100 μM NADPH, 200 μM L-KYN, 400 μM o-dianisidine and ∼5 units HRP in the presence and absence of excess KMO inhibitors. The rate of oxidation of o-dianisidine by H2O2, catalysed by HRP, was monitored at 440 nm (Δε 440 nm = 11.3 mM^−1 cm^−1). To eliminate the L-Kyn competition binding effect, the H2O2 production rates of KMO inhibitors were also measured without L-Kyn with the same method.

T1 sequence (Q84HF5 whole entry C252S/C461S): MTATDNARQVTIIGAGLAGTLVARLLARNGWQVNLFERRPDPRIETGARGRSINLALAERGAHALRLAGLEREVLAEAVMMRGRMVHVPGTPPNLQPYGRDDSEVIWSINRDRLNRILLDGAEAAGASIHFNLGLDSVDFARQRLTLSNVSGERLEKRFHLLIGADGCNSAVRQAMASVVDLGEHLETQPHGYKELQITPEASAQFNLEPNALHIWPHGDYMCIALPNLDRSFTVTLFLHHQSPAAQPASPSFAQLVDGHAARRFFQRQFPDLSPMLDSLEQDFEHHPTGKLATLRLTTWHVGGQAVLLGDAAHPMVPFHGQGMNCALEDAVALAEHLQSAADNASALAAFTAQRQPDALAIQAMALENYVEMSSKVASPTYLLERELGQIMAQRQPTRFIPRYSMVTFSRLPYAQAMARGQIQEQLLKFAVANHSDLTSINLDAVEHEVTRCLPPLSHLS

For `CCOC(=O)CN1C(=O)COc2cc(C)c(Cl)c(C)c21` [1b], the “Reduction in [3H]-3-HK” value in data set [1] (rat striatum, 5 mg/kg i.v., 1 h, vs vehicle) is on record as ~ 70%. For the same compound, the “Percentage of [5-3H]-KYN that is metabolized into [3H]-3-HK” value in data set [1] (striatum of awake rats, 1 h after 5 mg/kg i.v., single rats, listed as Prodrug 1b) was 0.72% and 0.39% and 1.91% and 0.11% and 1.44% and 0.83% and 2.24% and 1.06% and 1.38% and 0.19%. The compound further returned a Mean intrinsic clearance in data set [2] of over 50 mL/min/g liver.
For orientation: Ki means a measure of affinity in units of concentration, obtained from inhibition or displacement. `Cc1cc2c(c(C)c1Cl)N(Cc1nn[nH]n1)C(=O)CO2` [1h, 6-chloro-5,7-dimethyl-4-(2H-tetrazol-5-ylmethyl)-1,4-benzoxazin-3-one]: the Ki at PfKMO [3] worked out at 1060 ± 40 nM. For the same compound, the “Reduction rate of flavin cofactor” value on PfKMO [4] is 0.09 ± 0.001 s⁻¹.
For the compound `Cc1cc2c(c(C)c1Cl)N(CC(=O)O)C(=O)CO2` [compound 1, (6-chloro-5,7-dimethyl-3-oxo-2,3-dihydro-4H-1,4-benzoxazin-4-yl) acetic acid], on PfKMO [3] (PfKMO), the “Mechanism of inhibition with respect to L-KYN” value is recorded as “competitive inhibitor” and the “Mechanism of inhibition with respect to NADPH” value is recorded as “mixed type inhibitors”. In addition, at PfKMO [4], the “Reduction rate of flavin cofactor” value stood at 0.13 ± 0.005 s⁻¹. The “Stimulation of KMO reduction by NADPH” value at PfKMO [4] (rapid mixing stopped-flow assays) is “do not stimulate”. The H2O2 production entry on PfKMO [5] is “not detected”. Besides, in data set [2], the Mean intrinsic clearance came out at 0.8 mL/min/g liver.
